Values quoted from earlier work, collected in US20040040468A1, “Drier for printing ink and printing ink containing drier” (DAINIPPON INK AND CHEMICALS, INC., priority 2002, published 2004).

Test system: rat
Conditions: from database REGISTRY OF TOXIC EFFECTS OF CHEMICAL SUBSTANCES

Substance | LD50 (rat, oral administration) [mg/kg]
Manganese naphthenate | 6000
Cobalt naphthenate | 3900
